# Measured values as given in US5976783A, “Bis-maleimido cross-linking agents” (Boehringer Mannheim Corporation, priority 1997, dated 1999).
# How the values were obtained:
# [1] = stability of 4-maleimidobutyraldehyde on work-up; type: physicochemical; conditions: work-up needed low temperatures (0° C.) and complete exclusion of oxygen
# Method: 4-Maleimidobutyraldehyde diethylacetal (2 g, 8.29 mmol) in tetrahydrofuran (20 ml) and water (0.5 ml) was stirred under argon and DOWEX 50X8 ion exchange resin (H^+, 2 g, ® Dow Chemical Co.) was added. After 12 hours stirring at room temperature, the solvent was decanted, dried (MgSO4) and evaporated in vacuo to afford 4-maleimidobutyraldehyde (formula III) as a yellow oil which rapidly solidified on standing (1.38 g, 99%); TLC Rf=0.4, ethyl acetate/hexane 1:1.
# ICE protease = conditions: See Nature 375:78-81 (1995); cited from earlier work
stability [1],SMILES,inhibition of ICE protease (ICE protease)
extremely unstable,O=CCCCN1C(=O)C=CC1=O [4-maleimidobutyraldehyde],–
–,CC(=O)N[C@@H](Cc1ccc(O)cc1)C(=O)N[C@H](C(=O)N[C@@H](C)C(=O)N[C@@H](CC(=O)O)C(=O)CCl)C(C)C [Ac-Tyr-Val-Ala-Asp-*],potent inhibitor
